In the assay the target is T1, PD brain-derived alpha-synuclein aggregates (Homo sapiens, UniProt P37840).
T1 construct: from tissue; host or cells: human PD donor brain, sarkosyl-insoluble pellet
Briefly: Micro-radiobinding competition assay for the determination of binding affinity. The following applies: for inhibition at 0.1 µM: read-out: Micro-radiobinding competition assay Competition at 100 nM (%); for inhibition at 1 µM: read-out: Micro-radiobinding competition assay Competition at 1 μM (%); for Ki: * = mean of two independent experiments, two donors. The procedure: The procedure was adapted from the protocol described in Spillantini et al., 1998. Frozen tissue blocks from PD donors were thawed on ice and homogenized using a glass dounce homogenizer. The homogenate was then centrifuged at 11,000×g (12,700 RPM) in an ultracentrifuge (Beckman, XL100K) for 20 minutes at 4° C. using a pre-cooled 70.1 rotor (Beckman, 342184). Pellets were resuspended in extraction buffer [10 mM Tris-HCl pH 7.4, 10% sucrose, […], 1% protease inhibitor (Calbiochem 539131), 1 mM EGTA, 1% phosphatase inhibitor (Sigma P5726 and P0044)] and centrifuged at 15,000×g (14,800 RPM, a 70.1 Ti rotor) for 20 minutes at 4° C. Pellets were discarded and sarkosyl (20% stock solution, Sigma L7414) was added to the supernatants to a final concentration of 1% at room temperature for one hour. This solution was then centrifuged at 100,000×g (38,000 RPM, 70.1 Ti rotor) for one hour at 4° C. Pellets containing enriched alpha-synuclein aggregates were resuspended in PBS and stored at −80° C. until use.
PD brain-derived alpha-synuclein aggregates were spotted onto microarray slides. The slides were incubated with [^3H]-alpha-synuclein reference at 6 nM or 20 nM and the example compounds (non-radiolabelled) at 1 μM and 100 nM. In some cases, the non-radiolabelled example compounds were further assessed for a range of different concentrations, varying from 0.05 nM to 2 μM. After incubation, slides were washed and scanned by a real-time autoradiography system (BeaQuant, ai4R). Quantification of the signal was performed by using the Beamage image analysis software (ai4R). Non-specific signal was determined with an excess of non-radiolabelled Example-1 (2 μM) and specific binding was calculated by subtracting the non-specific signal from the total signal. Competition was calculated as percent, where 0% was defined as the specific binding in the presence of vehicle and 100% as the values obtained in the presence of excess of the non-radiolabelled Example-1. Ki values were calculated in GraphPad Prism7 by applying a nonlinear regression curve fit using a one site, specific binding model. All measurements were performed with at least two technical replicates. For compounds tested in more than one experiment, the mean of the replicates or Ki values in independent experiments is reported.
Results: Example compounds were assessed for their potency to compete with the binding of [^3H]-reference alpha-synuclein ligand to PD patient brain-derived alpha-synuclein aggregates. Results of the micro-radiobinding competition assay for the example compounds tested are shown in Table 3 as: % competition at 1 μM and 100 nM.
Table 3: Assessment of binding affinity by micro-radiobinding competition assay on human PD brain-derived alpha-synuclein aggregates. Percent (%) competition over the tritiated [^3H]-Example-1 ligand in the presence of 1 μM and 100 nM of example compounds 1-9. Ki values are also shown for selected example compounds. *, mean of Ki values in two independent experiments using PD brain-derived homogenates from two different donors.

[1] abbreviates: 100 nM non-radiolabelled compound, competition over tritiated [3H]-Example-1 ligand, human PD brain-derived alpha-synuclein aggregates.
Where [2] appears, read: 1 μM non-radiolabelled compound, competition over tritiated [3H]-Example-1 ligand, human PD brain-derived alpha-synuclein aggregates.
Setting [3] is: human PD brain-derived alpha-synuclein aggregates.

Where a name gives a salt, the structure may show the parent alone. Read-outs that look alike come from different tables or passages of the source.

As to `O=C1N(c2cncs2)Cc2cc(-c3ccc(N4CCC(F)C4)nc3)nn21` (stereo in doubt) [Example 16, (R)-2-(6-(3-fluoropyrrolidin-1-yl)pyridin-3-yl)-5-(thiazol-5-yl)-4,5-dihydro-6H-imidazo[1,5-b]pyrazol-6-one hydrogen chloride salt], under setting [1], the inhibition at 0.1 µM amounted to 79%. The inhibition at 1 µM under setting [2] stood at 98%.
Consider `O=C1N(c2cccnc2)Cc2cc(-c3ccc(N4CC[C@@H](F)C4)nc3)nn21` [Example 2, (R)-2-(6-(3-fluoropyrrolidin-1-yl)pyridin-3-yl)-5-(pyridin-3-yl)-4H-imidazo[1,5-b]pyrazol-6(5H)-one hydrochloride], for which, under setting [1], the inhibition at 0.1 µM was 87%. Besides, the inhibition at 1 µM under setting [2] worked out at 97%. The Ki under setting [3] came to 0.046 µM.
With `O=C1N(c2ccccn2)Cc2cc(-c3ccc(N4CC[C@@H](F)C4)nc3)nn21` [Example 3, (R)-2-(6-(3-fluoropyrrolidin-1-yl)pyridin-3-yl)-5-(pyridin-2-yl)-4H-imidazo[1,5-b]pyrazol-6(5H)-one], the inhibition at 0.1 µM under setting [1] is 74%. Further, the inhibition at 1 µM under setting [2] stood at 89%.
On to `O=C1N(c2ccccn2)Cc2cc(-c3ccc(N4CC[C@H](F)C4)nc3)nn21` [Example 4, (S)-2-(6-(3-fluoropyrrolidin-1-yl)pyridin-3-yl)-5-(pyridin-2-yl)-4H-imidazo[1,5-b]pyrazol-6(5H)-one hydrochloride], for which the inhibition at 0.1 µM under setting [1] was determined as 94%. Moreover, the inhibition at 1 µM under setting [2] worked out at 100%.
As for `O=C1N(c2ccncc2)Cc2cc(-c3ccc(N4CC[C@H](F)C4)nc3)nn21` [Example 5, (S)-2-(6-(3-fluoropyrrolidin-1-yl)pyridin-3-yl)-5-(pyridin-4-yl)-4H-imidazo[1,5-b]pyrazol-6(5H)-one hydrochloride], the inhibition at 0.1 µM under setting [1] was determined as 59%. For the same compound, under setting [2], the inhibition at 1 µM amounted to 89%. This compound showed a Ki under setting [3] of 0.026 µM.
In the case of `Cn1cc(N2Cc3cc(-c4ccc(N5CC[C@H](F)C5)nc4)nn3C2=O)cn1` [Example 6, (S)-2-(6-(3-fluoropyrrolidin-1-yl)pyridin-3-yl)-5-(1-methyl-1H-pyrazol-4-yl)-4H-imidazo[1,5-b]pyrazol-6(5H)-one], the inhibition at 0.1 µM amounted to 43% and the inhibition at 1 µM was 93%.
For `Cn1ccc(N2Cc3cc(-c4ccc(N5CC[C@H](F)C5)nc4)nn3C2=O)n1` [Example 7, (S)-2-(6-(3-fluoropyrrolidin-1-yl)pyridin-3-yl)-5-(1-methyl-1H-pyrazol-3-yl)-4H-imidazo[1,5-b]pyrazol-6(5H)-one hydrochloride], under setting [1], the inhibition at 0.1 µM was 73%. Moreover, the inhibition at 1 µM under setting [2] was 96%.
For the compound `O=C1N(c2cnn(CCF)c2)Cc2cc(-c3ccc(N4CCCC4)nc3)nn21` [Example 8, 5-(1-(2-fluoroethyl)-1H-pyrazol-4-yl)-2-(6-(pyrrolidin-1-yl)pyridin-3-yl)-4H-imidazo[1,5-b]pyrazol-6(5H)-one], the inhibition at 0.1 µM was 27% and the inhibition at 1 µM was determined as 73%. Under setting [3], this compound returned a Ki of 0.064 µM.
As to `O=C1N(c2cccnc2)Cc2cc(-c3ccc(Br)nc3)nn21` [Example 9, 2-(6-bromopyridin-3-yl)-5-(pyridin-3-yl)-4H-imidazo[1,5-b]pyrazol-6(5H)-one], the inhibition at 0.1 µM is 45% and the inhibition at 1 µM is 62%.
In the case of `O=C1N(c2cccnc2)Cc2cc(-c3cnc(N4CC[C@@H](F)C4)cn3)nn21` [Example 10, (R)-2-(5-(3-fluoropyrrolidin-1-yl)pyrazin-2-yl)-5-(pyridin-3-yl)-4,5-dihydro-6H-imidazo[1,5-b]pyrazol-6-one], under setting [1], the inhibition at 0.1 µM worked out at 72%. In addition, the inhibition at 1 µM under setting [2] amounted to 100%.
`O=C1N(c2cccnc2)Cc2cc(-c3cnc(N4CC[C@H](F)C4)cn3)nn21` [Example 11, (S)-2-(5-(3-fluoropyrrolidin-1-yl)pyrazin-2-yl)-5-(pyridin-3-yl)-4,5-dihydro-6H-imidazo[1,5-b]pyrazol-6-one hydrogen chloride salt]: the inhibition at 0.1 µM under setting [1] is 25%. For the same compound, the inhibition at 1 µM under setting [2] stood at 76%. Under setting [3], the Ki came out at 0.252 µM.
The matching figures for `O=C1N(c2cccnc2)Cc2cc(-c3cnc(N4CC[C@@H](F)C4)c(F)c3)nn21` [Example 12, (R)-2-(5-fluoro-6-(3-fluoropyrrolidin-1-yl)pyridin-3-yl)-5-(pyridin-3-yl)-4,5-dihydro-6H-imidazo[1,5-b]pyrazol-6-one hydrogen chloride salt]: 76%, 90% and 0.034 µM.
The matching figures for `O=C1N(c2cccnc2)Cc2cc(-c3cnc(N4CC[C@H](F)C4)c(F)c3)nn21` [Example 13, (S)-2-(5-fluoro-6-(3-fluoropyrrolidin-1-yl)pyridin-3-yl)-5-(pyridin-3-yl)-4,5-dihydro-6H-imidazo[1,5-b]pyrazol-6-one hydrogen chloride salt]: 55%, 71% and 0.101 µM.
Regarding `Cc1nc(N2CC[C@@H](F)C2)ccc1-c1cc2n(n1)C(=O)N(c1cccnc1)C2` [Example 14, (R)-2-(6-(3-fluoropyrrolidin-1-yl)-2-methylpyridin-3-yl)-5-(pyridin-3-yl)-4,5-dihydro-6H-imidazo[1,5-b]pyrazol-6-one hydrogen chloride salt], the inhibition at 0.1 µM under setting [1] amounted to 56%. In addition, the inhibition at 1 µM under setting [2] stood at 85%. Under setting [3], this compound gave an inhibition constant Ki of 0.08 µM.
`Cc1nc(N2CC[C@H](F)C2)ccc1-c1cc2n(n1)C(=O)N(c1cccnc1)C2` [Example 15, (S)-2-(6-(3-fluoropyrrolidin-1-yl)-2-methylpyridin-3-yl)-5-(pyridin-3-yl)-4,5-dihydro-6H-imidazo[1,5-b]pyrazol-6-onehydrogen chloride salt]: the inhibition at 0.1 µM under setting [1] was determined as 48%. Besides, the inhibition at 1 µM under setting [2] is 80%. Also, affinity under setting [3] was put at a Ki of 0.141 µM.
For the compound `O=C1N(c2cncs2)Cc2cc(-c3ccc(N4CC[C@H](F)C4)nc3)nn21` [Example 17, (S)-2-(6-(3-fluoropyrrolidin-1-yl)pyridin-3-yl)-5-(thiazol-5-yl)-4,5-dihydro-6H-imidazo[1,5-b]pyrazol-6-one hydrogen chloride salt], the “Micro-radiobinding competition assay Competition at 100 nM (%)” value under setting [1] amounted to 66%. In addition, under setting [2], the “Micro-radiobinding competition assay Competition at 1 μM (%)” value turned out to be 95%.
For `Cc1ncc(N2Cc3cc(-c4ccc(N5CC[C@@H](F)C5)nc4)nn3C2=O)s1` [Example 18, (R)-2-(6-(3-fluoropyrrolidin-1-yl)pyridin-3-yl)-5-(2-methylthiazol-5-yl)-4,5-dihydro-6H-imidazo[1,5-b]pyrazol-6-one hydrogen chloride salt], the inhibition at 0.1 µM under setting [1] turned out to be 51%. Besides, under setting [2], the inhibition at 1 µM is 83%. In addition, the Ki under setting [3] was 0.051 µM.
Taken in the same sequence, the figures for `Cc1ncc(N2Cc3cc(-c4ccc(N5CC[C@H](F)C5)nc4)nn3C2=O)s1` [Example 19, (S)-2-(6-(3-fluoropyrrolidin-1-yl)pyridin-3-yl)-5-(2-methylthiazol-5-yl)-4,5-dihydro-6H-imidazo[1,5-b]pyrazol-6-one hydrogen chloride salt] were 41%, 78% and 0.065 µM.
As to `O=C1N(c2ccns2)Cc2cc(-c3ccc(N4CC[C@@H](F)C4)nc3)nn21` [Example 20, (R)-2-(6-(3-fluoropyrrolidin-1-yl)pyridin-3-yl)-5-(isothiazol-5-yl)-4,5-dihydro-6H-imidazo[1,5-b]pyrazol-6-one hydrogen chloride salt], the inhibition at 0.1 µM under setting [1] came to 85%. The inhibition at 1 µM under setting [2] is 87%.

The values are drawn from patent publication US20250018068A1, “4H-IMIDAZO[1,5-B]PYRAZOLE DERIVATIVES FOR DIAGNOSIS” (AC IMMUNE SA, priority 2021, published 2025).
